Experimental findings from ChEMBL document CHEMBL1124854, “Porphyrin dimers as photosensitizers in photodynamic therapy” (1990) are described below.

Assay type in all cases: functional
For experiment [1], the system named is Mus musculus. Nature of the experiment: In vivo photosensitizing activity against subcutaneously implanted SMT-F tumor in DBA/2 mice at the dose of 2.1mg/Kg, day 7.
Experiment [2] deals with Mus musculus. Put plainly: In vivo photosensitizing activity against subcutaneously implanted SMT-F tumor in DBA/2 mice at the dose of 2.1mg/Kg, day 1-2.
Experiment [3] deals with Mus musculus. Put plainly: In vivo photosensitizing activity against subcutaneously implanted SMT-F tumor in DBA/2 mice at the dose of 4.2mg/Kg, day 1-2.

Consider `C=CC1=C(C)c2cc3nc(ccc(CCC(=O)OC)c(C)c(NC)cc4[nH]c(cc1n2)c(C)c4C(C)OC(C)c1c(C)cc2[nH]c(cc4nc(cc5nc(cc(N)c1C)C(C(C)O)=C5C)C(C)=C4CCC(=O)OC)c(CCC(=O)OC)c2C)C(CCC(=O)OC)=C3C` (centres undefined), for which the Tumor response with Mus musculus [1] and in the experiment with Mus musculus [2] was 100% throughout.
With `CNc1cc2[nH]c(cc3nc(cc4nc(ccc(CCC(=O)OC)c1C)C(CCC(=O)OC)=C4C)C(C)=C3C(C)O)c(C)c2C(C)OC(=O)CCC1=C(C)c2cc(C)c(C(C)O)c(C)c(N)cc3nc(cc4[nH]c(cc1n2)c(CCC(=O)OC)c4C)C(C)=C3C(C)O` (centres undefined), the Tumor response in the experiment on Mus musculus [3] came out at 0%.
In the case of `CNc1cc2[nH]c(cc3nc(cc4nc(ccc(CCC(=O)OC)c1C)C(CCC(=O)OC)=C4C)C(C)=C3C(C)O)c(C)c2C(C)OC(C)c1c(C)cc2[nH]c(cc3nc(cc4nc(cc(N)c1C)C(C(C)O)=C4C)C(C)=C3CCC(=O)OC)c(CCC(=O)OC)c2C` (centres undefined), the Tumor response with Mus musculus [3] worked out at 0%.
